Tests used:
[1] = molecular target: 5-hydroxytryptamine receptor 7 (Homo sapiens, UniProt P34969); test: Displacement of [3H]5-CT from human 5HT7A receptor expressed in HEK293 cells after 60 mins; format: cell-based
[2] = Metabolic stability in rat liver S9 fractions at 10 uM after 30 mins by RP-HPLC analysis; format: ADME, subcellular, Liver S9 fraction; settings: read-out: Stability
[3] = (§1) Binding affinity to sigma 2 receptor (unknown origin) by radioligand binding assay; parameters: species or system Homo sapiens
[4] = molecular target: T1, Adrenergic receptor alpha-1 (Rattus norvegicus, UniProt P15823+P23944+P43140); test: Displacement of [3H]-prazosin from alpha1 adrenergic receptor in rat cerebral cortex membranes after 50 mins; format: cell membranes, Membrane
T1 sequence (P15823 whole entry): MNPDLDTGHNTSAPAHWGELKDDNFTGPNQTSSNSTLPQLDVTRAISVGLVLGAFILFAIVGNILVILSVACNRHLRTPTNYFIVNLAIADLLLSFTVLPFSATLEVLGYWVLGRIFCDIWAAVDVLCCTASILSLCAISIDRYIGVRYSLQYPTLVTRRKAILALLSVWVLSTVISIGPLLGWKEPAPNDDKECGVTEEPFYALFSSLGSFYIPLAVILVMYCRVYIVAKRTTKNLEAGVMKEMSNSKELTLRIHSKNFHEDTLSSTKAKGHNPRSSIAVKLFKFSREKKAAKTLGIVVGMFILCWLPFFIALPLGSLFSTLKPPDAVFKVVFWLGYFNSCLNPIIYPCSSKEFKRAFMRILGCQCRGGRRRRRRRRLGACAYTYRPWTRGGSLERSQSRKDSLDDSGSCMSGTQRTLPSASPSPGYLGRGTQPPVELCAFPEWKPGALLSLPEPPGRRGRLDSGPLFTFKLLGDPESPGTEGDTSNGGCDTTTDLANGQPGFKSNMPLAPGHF
T1 sequence (P23944 whole entry): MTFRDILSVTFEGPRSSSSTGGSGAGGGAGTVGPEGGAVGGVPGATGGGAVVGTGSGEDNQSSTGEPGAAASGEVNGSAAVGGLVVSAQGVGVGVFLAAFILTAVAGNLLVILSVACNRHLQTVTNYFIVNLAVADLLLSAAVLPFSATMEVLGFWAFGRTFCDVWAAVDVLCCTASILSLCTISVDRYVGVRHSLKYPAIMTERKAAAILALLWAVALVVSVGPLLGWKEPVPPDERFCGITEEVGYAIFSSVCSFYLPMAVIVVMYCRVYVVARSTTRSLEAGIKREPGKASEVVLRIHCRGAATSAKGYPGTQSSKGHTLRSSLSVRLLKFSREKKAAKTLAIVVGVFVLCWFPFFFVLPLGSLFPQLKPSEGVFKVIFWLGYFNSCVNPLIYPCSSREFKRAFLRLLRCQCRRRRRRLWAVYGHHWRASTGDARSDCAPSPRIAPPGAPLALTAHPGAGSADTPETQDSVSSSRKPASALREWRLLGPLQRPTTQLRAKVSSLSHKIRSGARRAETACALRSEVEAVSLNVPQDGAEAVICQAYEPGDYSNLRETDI
T1 sequence (P43140 whole entry): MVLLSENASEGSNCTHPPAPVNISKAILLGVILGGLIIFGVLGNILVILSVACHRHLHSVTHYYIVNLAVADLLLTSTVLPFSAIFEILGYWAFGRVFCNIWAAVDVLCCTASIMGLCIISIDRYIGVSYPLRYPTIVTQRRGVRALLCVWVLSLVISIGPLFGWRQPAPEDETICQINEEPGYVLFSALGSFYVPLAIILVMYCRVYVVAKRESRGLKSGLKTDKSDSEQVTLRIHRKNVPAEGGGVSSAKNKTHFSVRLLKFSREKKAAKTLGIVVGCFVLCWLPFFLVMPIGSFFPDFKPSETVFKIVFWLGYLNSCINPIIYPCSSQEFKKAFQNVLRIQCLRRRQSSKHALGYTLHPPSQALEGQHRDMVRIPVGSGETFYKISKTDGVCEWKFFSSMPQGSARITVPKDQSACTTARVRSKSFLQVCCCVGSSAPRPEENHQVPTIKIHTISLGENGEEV

[5] = molecular target: T2, 5-hydroxytryptamine receptor 1A (Homo sapiens, UniProt P08908); test: Displacement of [3H]-8-OH-DPAT from human recombinant 5HT1A receptor expressed in HEK293-EBNA cells after 120 mins; format: cell-based
T2 sequence (P08908 whole entry): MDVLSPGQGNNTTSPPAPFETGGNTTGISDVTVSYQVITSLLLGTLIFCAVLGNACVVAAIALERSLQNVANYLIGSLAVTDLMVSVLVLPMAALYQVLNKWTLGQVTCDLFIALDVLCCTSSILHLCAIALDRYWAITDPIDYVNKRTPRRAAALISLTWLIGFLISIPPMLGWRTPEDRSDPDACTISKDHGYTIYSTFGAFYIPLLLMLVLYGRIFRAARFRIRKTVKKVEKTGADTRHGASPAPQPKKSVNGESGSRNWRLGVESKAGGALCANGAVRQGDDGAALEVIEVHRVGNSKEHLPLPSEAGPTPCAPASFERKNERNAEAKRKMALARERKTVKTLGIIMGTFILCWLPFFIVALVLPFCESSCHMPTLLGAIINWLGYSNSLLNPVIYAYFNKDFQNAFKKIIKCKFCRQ

Mus musculus = test: Elimination half life in CD1 mouse assessed as 1-[2-(4-methoxyphenyl)phenyl]piperazine at 10 mg/kg, ip qd by RP-HPLC analysis; format: ADME, organism-based; parameters: dose 10 mg/kg, route intraperitoneal; settings: in vivo
[6] = Elimination half life in CD1 mouse at 10 mg/kg, ip qd by RP-HPLC analysis; format: ADME, organism-based; parameters: dose 10 mg/kg, route intraperitoneal; settings: in vivo, read-out: beta t1/2
Brain = test: Cmax in brain of CD1 mouse assessed as 1-[2-(4-methoxyphenyl)phenyl]piperazine at 10 mg/kg, ip qd after 30 mins by RP-HPLC analysis; format: ADME, organism-based; parameters: dose 10 mg/kg, route intraperitoneal; settings: in vivo, 0.5 h
[7] = Ratio of AUC from brain to plasma of CD1 mouse at 10 mg/kg, ip qd measured within 120 mins by RP-HPLC analysis; format: ADME, organism-based; parameters: dose 10 mg/kg, route intraperitoneal; settings: read-out: Ratio AUC
[8] = Cmax in brain of CD1 mouse at 10 mg/kg, ip qd after 30 mins by RP-HPLC analysis; format: ADME, organism-based; parameters: dose 10 mg/kg, route intraperitoneal
[9] = Cmax in plasma of CD1 mouse at 10 mg/kg, ip qd after 15 mins by RP-HPLC analysis; format: ADME, organism-based; parameters: dose 10 mg/kg, route intraperitoneal
[10] = Efflux ratio of apparent permeability from basolateral to apical side over apical to basolateral side in human Caco2 cells at 1 to 100 uM after 120 mins by UV spectroscopic analysis; format: ADME, cell-based; settings: Caco-2
Homo sapiens = organism: Homo sapiens; test: as §1; settings: concentration not given here
[11] = molecular target: Sigma non-opioid intracellular receptor 1 (Homo sapiens, UniProt Q99720); test: Binding affinity to sigma 1 receptor (unknown origin) by radioligand binding assay; settings: for inhibition: concentration not given here
[12] = Half life in mouse brain at 10 to 30 mg/kg, ip; format: ADME, organism-based; parameters: dose 10-30 mg/kg, route intraperitoneal
[13] = molecular target: T2, 5-hydroxytryptamine receptor 1A; test: Displacement of [3H]-8-OH-DPAT from human 5HT1A receptor after […]

5-hydroxytryptamine receptor 7, sequence (P34969 whole entry): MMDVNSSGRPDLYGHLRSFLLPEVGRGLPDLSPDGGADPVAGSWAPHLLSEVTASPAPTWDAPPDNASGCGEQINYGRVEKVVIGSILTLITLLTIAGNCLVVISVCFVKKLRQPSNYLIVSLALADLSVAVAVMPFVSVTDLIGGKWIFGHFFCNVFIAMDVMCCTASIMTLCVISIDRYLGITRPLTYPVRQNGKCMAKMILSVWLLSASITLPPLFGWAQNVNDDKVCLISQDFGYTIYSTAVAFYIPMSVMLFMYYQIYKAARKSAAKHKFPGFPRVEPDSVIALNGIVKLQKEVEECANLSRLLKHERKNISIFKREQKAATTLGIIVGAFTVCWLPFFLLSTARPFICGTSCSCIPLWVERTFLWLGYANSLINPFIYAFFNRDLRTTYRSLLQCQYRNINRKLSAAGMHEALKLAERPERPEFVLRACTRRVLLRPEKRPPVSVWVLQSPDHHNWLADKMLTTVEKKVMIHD
Sigma non-opioid intracellular receptor 1, sequence (Q99720 whole entry): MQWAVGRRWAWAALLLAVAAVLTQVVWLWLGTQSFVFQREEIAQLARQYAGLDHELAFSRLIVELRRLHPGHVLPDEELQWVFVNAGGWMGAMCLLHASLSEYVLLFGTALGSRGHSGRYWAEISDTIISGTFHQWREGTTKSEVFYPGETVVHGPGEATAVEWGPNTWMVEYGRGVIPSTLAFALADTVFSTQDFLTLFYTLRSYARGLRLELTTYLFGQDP

Compound | Ki [1] | remaining at 0.5 h, 10 µM [2] | Ki [3] | Ki [4] | Ki [5] | beta t1/2 (Mus musculus) | half-life [6] | Cmax (Brain) | Kp at 2 h [7] | Cmax [8] | Cmax [9] | efflux ratio at 2 h, up to 100 µM [10] | inhibition (Homo sapiens) | Ki [11] | inhibition [11] | half-life [12] | Ki [13]
COc1ccc(-c2ccccc2N2CCN(CCCCCC(=O)NCc3ccccn3)CC2)cc1 | 15.2 nM | 69% | 3.48 µM | 11.4 nM | 35 nM | – | – | – | – | – | – | – | – | – | – | – | –
COc1ccc(-c2ccccc2N2CCN(CCOCCC(=O)NCc3cccnc3)CC2)cc1 | 23.8 nM | 82% | > 10 µM | 393 nM | 1270 nM | 120 min | 44 min | 484 ng/g | 1.3 | 308 ng/g | 702 ng/mL | 3.3 | 38% | > 5 µM | 36% | – | –
COc1ccc(-c2ccccc2N2CCN(CCOCCC(=O)NCc3ccncc3)CC2)cc1 | 18 nM | 82% | > 10 µM | 193 nM | 877 nM | – | – | – | – | – | – | – | 45% | > 5 µM | 33% | – | –
COc1ccc(-c2ccccc2N2CCN(CCCCCC(=O)NCc3cccnc3)CC2)cc1 | 12.7 nM | 85% | 0.638 µM | 38.3 nM | 80 nM | – | – | – | – | – | – | 4.5 | – | – | – | – | –
COc1ccc(-c2ccccc2N2CCN(CCCCCC(=O)NCc3ccncc3)CC2)cc1 | 11.2 nM | 76% | 0.356 µM | 30.5 nM | 239 nM | – | – | – | – | – | – | – | – | > 5 µM | 30% | – | –
COc1ccc(-c2ccccc2N2CCN(CCOCCC(=O)NCc3ccccn3)CC2)cc1 | 23.5 nM | 78% | > 10 µM | 295 nM | 918 nM | – | – | – | – | – | – | – | 39% | > 5 µM | 27% | – | –
N#Cc1ccc(CNC(=O)CCCCCN2CCN(c3ccccc3-c3ccccc3)CC2)cc1 | – | 40% | 4.2 µM | 22.6 nM | – | – | – | – | – | – | – | – | – | > 5 µM | 48% | 69 min | 379 nM

Reference: ChEMBL document CHEMBL2439989 (Bioorg Med Chem Lett, 2013)
